According to US20230143752A1, “CANNABIDIOL NANODRUG FORMULATIONS AND METHODS FOR USE OF THE SAME” (priority 2020, published 2023):

Key:
[1] = system: mice with Auto-Immune Alopecia; assay: Hair regrowth in alopecia mice, topical treatment daily for 12 weeks; format: in vivo; conditions: for Number of animals per hair regrowth category, Category 0: 0=no hair growth; for Number of animals per hair regrowth category, Category 0 / Number of animals per hair regrowth category, Category 1 / Number of animals per hair regrowth category, Category 2 / Number of animals per hair regrowth category, Category 3 / Number of animals per hair regrowth category, Category 4: six animals per group, topical daily 12 weeks; for Number of animals per hair regrowth category, Category 1: 1=0-25% hair regrowth; for Number of animals per hair regrowth category, Category 2: 2=25-50% hair regrowth; for Number of animals per hair regrowth category, Category 3: 3=50-75% hair regrowth; for Number of animals per hair regrowth category, Category 4: 4=75-100% hair regrowth
Experimental: An animal study was carried out to determine the effect of a CBD nanoparticulate formulation comprising minoxidil as described herein on the induction of hair regrowth in alopecia mice after 12 weeks. In order to collect preliminary information on the reversal of Alopecia by CBD/minoxidil, a randomized pilot study on 24 animals was performed.
Eight- to ten-month-old mice with Auto-Immune Alopecia were randomized into four groups (six animals per group), receiving topical treatments daily for 12 weeks. Group 1 (Control group) received 0.1 ml of control solution applied topically over the ventral area daily for 12 weeks. Group 2 (CBD group) received 20 μg of CBD in 0.1 ml of control solution applied topically over the ventral area daily for 12 weeks. Group 3 (minoxidil) received 0.1 ml of 5% minoxidil solution applied topically over the ventral area daily for 12 weeks. Group 4 (CBD/minoxidil) received 20 μg of CBD and 5% minoxidil in 0.1 ml solution applied topically over the ventral area daily for 12 weeks.
Mice were sacrificed at the end point of a twelve week observation period, and skin biopsies were obtained. Skin biopsies were processed for histopathology.
Reported categories are as follows: 0=no hair growth, 1=0-25% hair regrowth, 2=25-50% hair regrowth, 3=50-75% hair regrowth, 4=75-100% hair regrowth.

[2] = system: CTLL-2 cytotoxic T lymphocytes; assay: In vitro screening platform for immunomodulation (CTLL-2); format: cell-based; conditions: CTLL-2, FIG. 4
Experimental: An in vitro screening platform for immunomodulation was used to evaluate nanoparticles for efficacy. CTLL-2 (ATCC®TIB-214™) are cytotoxic T lymphocytes that were purchased and cultured according to ATCC protocol. Once confluent, cells were seeded in a 12-well plate at a concentration of 55,000 cells/mL and treated, in triplicates, with the CBD nanoformulations described herein.
A similar experiment was carried out using CBD alone (not in nanoformulations).
In order to investigate options for improving CBD drug delivery in vitro, CBD was also formulated as a carrier-free nanoparticle and evaluated for efficacy.

[3] = alopecia mice, after 12 weeks, FIG. 6

Question: Which “Number of animals per hair regrowth category, Category 0” value [1] does the source give for `C=C(C)[C@@H]1CCC(C)=C[C@H]1c1c(O)cc(CCCCC)cc1O` [CBD, Cannabidiol] here?
Answer: 6

Question: What about the “Number of animals per hair regrowth category, Category 1” value [1] of the same compound?
Answer: 0

Question: And the “Number of animals per hair regrowth category, Category 2” value [1]?
Answer: 0

Question: What about the “Number of animals per hair regrowth category, Category 3” value [1] of the same compound?
Answer: 0

Question: And the “Number of animals per hair regrowth category, Category 4” value [1]?
Answer: 0

Question: What about the “hair regrowth, summary” value ([1]; alopecia mice, 12 weeks topical) of the same compound?
Answer: none of the control (vehicle), CBD alone, or minoxidil alone mice showed significant hair regrowth

Question: And the “effect observed in histopathology” value [1, 3]?
Answer: No significant effect

Question: And the “histopathology finding in skin biopsies” value [1, 3]?
Answer: miniaturization

Question: And the “reducing T-lymphocytes compared to controls” value [2]?
Answer: effective

Question: With `Nc1cc(N2CCCCC2)nc(N)[n+]1[O-]` [Minoxidil, minoxidil] as the compound, how does the “Number of animals per hair regrowth category, Category 0” value [1] read?
Answer: 6

Question: What about the “Number of animals per hair regrowth category, Category 1” value [1] of the same compound?
Answer: 0

Question: What about the “Number of animals per hair regrowth category, Category 2” value [1] of the same compound?
Answer: 0

Question: What about the “Number of animals per hair regrowth category, Category 3” value [1] of the same compound?
Answer: 0

Question: And the “Number of animals per hair regrowth category, Category 4” value [1]?
Answer: 0

Question: What about the “effect observed in histopathology” value [1, 3] of the same compound?
Answer: No significant effect
